Measurements: patent US12221434B2, “Sulfonamide carboxamide compounds” (Inflazome Limited, priority 2017, dated 2025)
pIC50: −log10 of the molar value.

What was measured:
[1] = target: T1, NLRP3 (Homo sapiens, UniProt Q96P20); experiment: THP-1 cells pyroptosis assay (LPS + nigericin, resazurin read-out); type: cell-based; parameters: Seed THP-1 cells (25,000 cells/well) containing 1.0 μg/ml LPS; host or cells: THP-1 cells, LPS-primed, nigericin-stimulated; settings: 1 μg/ml LPS, 5 μM nigericin, NLRP3 inhibitory activity
Experimental: THP-1 cells (ATCC #TIB-202) were grown in RPMI containing L-glutamine (Gibco #11835) supplemented with 1 mM sodium pyruvate (Sigma #S8636) and penicillin (100 units/ml)/streptomycin (0.1 mg/ml) (Sigma #P4333) in 10% Fetal Bovine Serum (FBS) (Sigma #F0804). The cells were routinely passaged and grown to confluency (˜10^6 cells/ml). On the day of the experiment, THP-1 cells were harvested and resuspended into RPMI medium (without FBS). The cells were then counted and viability (>90%) checked by Trypan blue (Sigma #T8154). Appropriate dilutions were made to give a concentration of 625,000 cells/ml. To this diluted cell solution was added LPS (Sigma #L4524) to give a 1 μg/ml Final Assay Concentration (FAC). 40 μl of the final preparation was aliquoted into each well of a 96-well plate. The plate thus prepared was used for compound screening.
The following method step-by-step assay was followed for compound screening. • 1. Seed THP-1 cells (25,000 cells/well) containing 1.0 μg/ml LPS in 40 μl of RPMI medium (without FBS) in 96-well, black walled, clear bottom cell culture plates coated with poly-D-lysine (VWR #734-0317) • 2. Add 5 μl compound (8 points half-log dilution, with 10 μM top dose) or vehicle (DMSO 0.1% FAC) to the appropriate wells • 3. Incubate for 3 hrs at 37° C. and 5% CO2 • 4. Add 5 μl nigericin (Sigma #N7143) (FAC 5 μM) to all wells • 5. Incubate for 1 hr at 37° C. and 5% CO2 • 6. At the end of the incubation period, spin plates at 300×g for 3 mins and remove supernatant • 7. Then add 50 μl of resazurin (Sigma #R7017) (FAC […] resazurin in RPMI medium without FBS) and incubate plates for a further 1-1.5 h at 37° C. and 5% CO2 • 8. Plates were read in an Envision reader at Ex 560 nm and Em 590 nm • 9. IC50 data is fitted to a non-linear regression equation (log inhibitor vs response-variable slope 4-parameters) 96-Well Plate Map

[2] = target: T1, NLRP3; experiment: Human whole blood IL1β release assay (LPS + nigericin, AlphaLisa IL-1β); type: cell-based; parameters: Plate out 80 μl of whole blood containing 1 μg/ml of LPS; from tissue; host or cells: human whole blood from healthy donors (Li-heparin), LPS-primed, nigericin-stimulated; settings: 1 μg/ml LPS, 10 μM nigericin, IL-1β release, read-out: HWB IC50
Experimental: For systemic delivery, the ability to inhibit NLRP3 when the compounds are present within the bloodstream is of great importance. For this reason, the NLRP3 inhibitory activity of a number of compounds in human whole blood was investigated in accordance with the following protocol.
Human whole blood in Li-heparin tubes was obtained from healthy donors from a volunteer donor panel. • 1. Plate out 80 μl of whole blood containing 1 μg/ml of LPS in 96-well, clear bottom cell culture plate (Corning #3585) • 2. Add 10 μl compound (8 points half-log dilution with 10 μM top dose) or vehicle (DMSO 0.1% FAC) to the appropriate wells • 3. Incubate for 3 hrs at 37° C., 5% CO2 • 4. Add 10 μl nigericin (Sigma #N7143) (10 μM FAC) to all wells • 5. Incubate for 1 hr at 37° C., 5% CO2 • 6. At the end of the incubation period, spin plates at 300×g for 5 mins to pellet cells and remove 20 μl of supernatant and add to 96-well v-bottom plates for IL-1β analysis (note: these plates containing the supernatants can be stored at −80° C. to be analysed at a later date) • 7. IL-1β was measured according to the manufacturer protocol (Perkin Elmer-AlphaLisa IL-1 Kit AL220F-5000) • 8. IC50 data is fitted to a non-linear regression equation (log inhibitor vs response-variable slope 4-parameters)

T1 sequence (Q96P20 whole entry): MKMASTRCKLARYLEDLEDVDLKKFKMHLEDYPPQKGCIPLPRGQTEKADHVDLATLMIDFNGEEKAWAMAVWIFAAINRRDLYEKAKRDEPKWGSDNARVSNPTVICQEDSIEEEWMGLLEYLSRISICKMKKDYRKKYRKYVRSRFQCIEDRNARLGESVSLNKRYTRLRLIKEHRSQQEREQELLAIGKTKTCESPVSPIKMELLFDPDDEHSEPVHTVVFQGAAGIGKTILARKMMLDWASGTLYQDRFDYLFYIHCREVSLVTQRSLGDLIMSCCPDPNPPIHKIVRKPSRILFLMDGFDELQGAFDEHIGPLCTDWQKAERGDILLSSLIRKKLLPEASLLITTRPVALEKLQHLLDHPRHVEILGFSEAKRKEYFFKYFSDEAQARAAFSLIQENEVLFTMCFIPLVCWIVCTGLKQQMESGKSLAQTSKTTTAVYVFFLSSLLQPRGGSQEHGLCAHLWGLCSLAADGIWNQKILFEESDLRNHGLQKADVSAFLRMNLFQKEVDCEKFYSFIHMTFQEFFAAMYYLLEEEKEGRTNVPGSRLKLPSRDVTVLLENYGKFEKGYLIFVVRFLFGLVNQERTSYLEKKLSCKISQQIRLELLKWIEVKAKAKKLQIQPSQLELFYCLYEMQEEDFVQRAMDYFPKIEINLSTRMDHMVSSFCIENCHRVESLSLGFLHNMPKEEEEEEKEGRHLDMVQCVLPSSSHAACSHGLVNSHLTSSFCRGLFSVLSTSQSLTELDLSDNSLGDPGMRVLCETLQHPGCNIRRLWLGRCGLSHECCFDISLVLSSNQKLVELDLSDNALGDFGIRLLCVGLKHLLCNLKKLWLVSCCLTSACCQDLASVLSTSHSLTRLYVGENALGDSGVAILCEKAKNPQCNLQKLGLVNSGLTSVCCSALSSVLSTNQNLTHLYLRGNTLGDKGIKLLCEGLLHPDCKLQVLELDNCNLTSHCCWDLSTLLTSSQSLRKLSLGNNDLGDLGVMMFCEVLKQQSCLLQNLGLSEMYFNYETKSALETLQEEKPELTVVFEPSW

| pIC50 [1] | pIC50 [2] | SMILES |
| --- | --- | --- |
| 5.59 to 6.19 |  | O=C(Nc1c2c(cc3c1CCC3)CCC2)NS(=O)(=O)c1ccn(Cc2ncccn2)n1 [Example 1, N-((1,2,3,5,6,7-Hexahydro-s-indacen-4-yl)carbamoyl)-1-(pyrimidin-2-ylmethyl)-1H-pyrazole-3-sulfonamide] |
| 6.80 to 7.40 | 5.00 to 5.49 | O=C(Nc1c2c(cc3c1CCC3)CCC2)NS(=O)(=O)c1ccn(Cc2ncco2)n1 [Example 2, N-((1,2,3,5,6,7-Hexahydro-s-indacen-4-yl)carbamoyl)-1-(oxazol-2-ylmethyl)-1H-pyrazole-3-sulfonamide] |
|  | 6.10 to 6.40 | Cn1ccnc1Cn1ccc(S(=O)(=O)NC(=O)Nc2c3c(cc4c2CCC4)CCC3)n1 [Example 3, N-((1,2,3,5,6,7-Hexahydro-s-indacen-4-yl)carbamoyl)-1-((1-methyl-1H-imidazol-2-yl)methyl)-H-pyrazole-3-sulfonamide] |
| 5.59 to 6.19 |  | O=C(Nc1c2c(cc3c1CCC3)CCC2)NS(=O)(=O)c1ccn(-c2ccccn2)n1 [Example 4, N-((1,2,3,5,6,7-Hexahydro-s-indacen-4-yl)carbamoyl)-1-(pyridin-2-yl)-1H-pyrazole-3-sulfonamide] |
| 5.59 to 6.19 |  | O=C(Nc1c2c(cc3c1CCC3)CCC2)NS(=O)(=O)c1ccn(-c2nccs2)n1 [Example 5, N-((1,2,3,5,6,7-Hexahydro-s-indacen-4-yl)carbamoyl)-1-(thiazol-2-yl)-1H-pyrazole-3-sulfonamide] |
| 5.59 to 6.19 |  | O=C(Nc1c2c(cc3c1CCC3)CCC2)NS(=O)(=O)c1ccn(-c2cccnc2)n1 [Example 6, N-((1,2,3,5,6,7-Hexahydro-s-indacen-4-yl)carbamoyl)-1-(pyridin-3-yl)-1H-pyrazole-3-sulfonamide] |
| 6.19 to 6.80 | 5.49 to 5.80 | CN(Cc1nccs1)C(=O)c1cc(S(=O)(=O)NC(=O)Nc2c3c(cc4c2CCC4)CCC3)nn1C [Example 7, 3-(N-((1,2,3,5,6,7-Hexahydro-s-indacen-4-yl)carbamoyl)sulfamoyl)-N,1-dimethyl-N-(thiazol-2-ylmethyl)-1H-pyrazole-5-carboxamide] |
| 6.80 to 7.40 | 5.80 to 6.10 | CN(Cc1nccn1C)C(=O)c1cc(S(=O)(=O)NC(=O)Nc2c3c(cc4c2CCC4)CCC3)nn1C [Example 8, 3-(N-((1,2,3,5,6,7-Hexahydro-s-indacen-4-yl)carbamoyl)sulfamoyl)-N,1-dimethyl-N-((1-methyl-1H-imidazol-2-yl)methyl)-1H-pyrazole-5-carboxamide] |
| 6.19 to 6.80 |  | CN(C(=O)c1cc(S(=O)(=O)NC(=O)Nc2c3c(cc4c2CCC4)CCC3)nn1C)c1nccs1 [Example 9, 3-(N-((1,2,3,5,6,7-Hexahydro-s-indacen-4-yl)carbamoyl)sulfamoyl)-N,1-dimethyl-N-(thiazol-2-yl)-1H-pyrazole-5-carboxamide] |
| 5.59 to 6.19 |  | CN(Cc1ccnn1C)C(=O)c1cc(S(=O)(=O)NC(=O)Nc2c3c(cc4c2CCC4)CCC3)nn1C [Example 10, 3-(N-((1,2,3,5,6,7-Hexahydro-s-indacen-4-yl)carbamoyl)sulfamoyl)-N,1-dimethyl-N-((1-methyl-1H-pyrazol-5-yl)methyl)-1H-pyrazole-5-carboxamide] |
